Results as given in ChEMBL document CHEMBL1155961, “Novel 4-aryl-pyrido[1,2-c]pyrimidines with dual SSRI and 5-HT1A activity: part 2” (Eur J Med Chem, 2009).
pKi: −log10 of the molar value.

Legend:
[1] = target: T1, 5-hydroxytryptamine receptor 1A (Rattus norvegicus, UniProt P19327); assay: Displacement of [3H]8-OH-DPAT from 5-HT1A receptor in rat hippocampus; assay type: tissue-based
T1 sequence (P19327 whole entry): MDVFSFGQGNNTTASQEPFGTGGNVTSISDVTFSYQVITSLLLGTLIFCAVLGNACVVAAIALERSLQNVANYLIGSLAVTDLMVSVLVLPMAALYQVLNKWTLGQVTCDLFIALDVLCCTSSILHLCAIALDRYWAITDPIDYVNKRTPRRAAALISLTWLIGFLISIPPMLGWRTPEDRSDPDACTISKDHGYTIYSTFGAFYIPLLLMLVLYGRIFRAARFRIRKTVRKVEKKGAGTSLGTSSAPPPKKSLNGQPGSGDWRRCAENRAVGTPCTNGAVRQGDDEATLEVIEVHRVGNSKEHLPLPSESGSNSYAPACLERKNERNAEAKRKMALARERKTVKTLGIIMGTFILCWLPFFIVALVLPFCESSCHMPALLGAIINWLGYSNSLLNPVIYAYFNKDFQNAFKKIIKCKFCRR

[2] = target: Sodium-dependent serotonin transporter (Rattus norvegicus, UniProt P31652); assay: Displacement of [3H]citalopram from SERT in rat cerebral cortex by liquid scintillation counting; assay type: tissue-based
Chain of Sodium-dependent serotonin transporter (P31652 whole entry): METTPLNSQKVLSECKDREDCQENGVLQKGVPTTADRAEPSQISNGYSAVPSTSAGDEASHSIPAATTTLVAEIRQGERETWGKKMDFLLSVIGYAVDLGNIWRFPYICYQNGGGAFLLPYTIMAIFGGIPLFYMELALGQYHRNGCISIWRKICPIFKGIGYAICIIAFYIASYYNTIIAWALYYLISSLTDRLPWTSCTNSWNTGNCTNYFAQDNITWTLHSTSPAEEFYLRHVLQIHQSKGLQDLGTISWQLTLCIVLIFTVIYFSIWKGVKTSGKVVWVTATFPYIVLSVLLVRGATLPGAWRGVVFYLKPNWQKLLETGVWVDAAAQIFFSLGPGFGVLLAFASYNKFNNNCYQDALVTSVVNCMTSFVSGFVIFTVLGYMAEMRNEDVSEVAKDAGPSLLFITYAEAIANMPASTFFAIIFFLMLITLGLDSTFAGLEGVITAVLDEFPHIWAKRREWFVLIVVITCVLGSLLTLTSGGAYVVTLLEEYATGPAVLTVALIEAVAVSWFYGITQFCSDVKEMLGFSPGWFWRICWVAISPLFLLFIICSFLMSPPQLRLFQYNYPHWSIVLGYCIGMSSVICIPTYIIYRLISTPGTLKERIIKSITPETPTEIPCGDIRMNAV

Row | SMILES | pKi [1] | pKi [2]
1 | Cc1[nH]c2ccccc2c1C1CCN(CCCCn2c(=O)c(-c3ccc(Cl)cc3)c3n(c2=O)CCCC3)CC1 | 5.82 | 6.34
2 | COc1ccccc1-c1c2n(c(=O)n(CCCCN3CCC(c4c(C)[nH]c5ccccc45)CC3)c1=O)CCCC2 | 5.80 | 6.14
3 | COc1ccc2[nH]cc(C3CCN(CCCCn4c(=O)c(-c5ccc(Cl)cc5)c5n(c4=O)CCCC5)CC3)c2c1 | 7.84 | 6.65
4 | Cc1ccc(-c2c3n(c(=O)n(CCCCN4CCC(c5c(C)[nH]c6ccccc56)CC4)c2=O)CCCC3)cc1 | 5.82 | 6.94
5 | Cc1[nH]c2ccccc2c1C1CCN(CCCCn2c(=O)c(-c3ccccc3F)c3n(c2=O)CCCC3)CC1 | 5.66 | 6.03
